From publication PMC10584170, “Machine learning-based phenotypic imaging to characterise the targetable biology of Plasmodium falciparum male gametocytes for the development of transmission-blocking antimalarials” (PLOS Pathogens, 2023)
Read-outs that look alike come from different tables or passages of the source.

How the values were obtained:
[1] = tested on: P. falciparum male gametocytes; assay: P. falciparum Dual Gamete Formation Assay (PfDGFA), male readout (exflagellation); format: cell-based, Plasmodium falciparum NF54; settings: for Selectivity Ratio M: HepG2 Tox50 versus male IC50; for inhibition at 2 µM / Average inhibition male (%) / % inhibition male (individual replicates) R1 / % inhibition male (individual replicates) R3 / % inhibition male (individual replicates) R4: 24h preincubation with gametocytes; for HitlevelM: number of replicates with >50% inhibition in the male readout
In short: (§1)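 Two sex-specific readouts come from one well: male exflagellation centres recorded by brightfield video right after activation, and female gametes scored by Cy3-anti-Pfs25 fluorescence after 24 h at 28°C.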

[2] = tested on: P. falciparum female gametocytes; assay: P. falciparum Dual Gamete Formation Assay (PfDGFA), female readout (Pfs25-positive female gametes); format: cell-based, Plasmodium falciparum NF54; settings: for Selectivity ratio F: HepG2 Tox50 versus female IC50; for inhibition at 2 µM / Average inhibition female (%) / % inhibition female (individual replicates) R1 / % inhibition female (individual replicates) R3 / % inhibition female (individual replicates) R4: 24h preincubation with gametocytes; for IC50: PfDGFA, 24 h incubation with gametocytes before induction, female gamete readout, read-out: Female IC50; for HitlevelF: number of replicates with >50% inhibition in the female readout
In short: as §1

HepG2 cells = assay: HepG2 cytotoxicity counter-screen; settings: for Tox50: cytotoxic activity against HepG2 cells
[3] = Plasmodium falciparum, 2µM, average of replicates, read-out: Average inhibition male (%)
[4] = Plasmodium falciparum, 2µM, replicate R1, read-out: % inhibition male (individual replicates) R1
[5] = Plasmodium falciparum, 2µM, replicate R2, read-out: % inhibition male (individual replicates) R2
[6] = Plasmodium falciparum, 2µM, replicate R4, read-out: % inhibition male (individual replicates) R4
[7] = Plasmodium falciparum, PfDGFA, 24 h incubation with gametocytes before induction, exflagellation readout, read-out: Male IC50
[8] = Plasmodium falciparum, 2µM, average of replicates, read-out: Average inhibition female (%)
[9] = Plasmodium falciparum, 2µM, replicate R1, read-out: % inhibition female (individual replicates) R1
[10] = Plasmodium falciparum, 2µM, replicate R2, read-out: % inhibition female (individual replicates) R2
[11] = Plasmodium falciparum, 2µM, replicate R3, read-out: % inhibition female (individual replicates) R3
[12] = Plasmodium falciparum, 2µM, replicate R4, read-out: % inhibition female (individual replicates) R4
[13] = PfDGFA at 2µM, average of replicates
[14] = PfDGFA, 24 h incubation with gametocytes before induction, exflagellation readout, read-out: Male IC50
[15] = Plasmodium falciparum, PfDGFA at 2µM, average of replicates, read-out: Average inhibition male (%)
[16] = Plasmodium falciparum, PfDGFA at 2µM, replicate R1, read-out: % inhibition male (individual replicates) R1
[17] = Plasmodium falciparum, PfDGFA at 2µM, replicate R2, read-out: % inhibition male (individual replicates) R2
[18] = Plasmodium falciparum, PfDGFA at 2µM, replicate R3, read-out: % inhibition male (individual replicates) R3
[19] = Plasmodium falciparum, PfDGFA at 2µM, replicate R4, read-out: % inhibition male (individual replicates) R4
[20] = Plasmodium falciparum, PfDGFA at 2µM, average of replicates, read-out: Average inhibition female (%)
[21] = Plasmodium falciparum, PfDGFA at 2µM, replicate R1, read-out: % inhibition female (individual replicates) R1
[22] = Plasmodium falciparum, PfDGFA at 2µM, replicate R2, read-out: % inhibition female (individual replicates) R2
[23] = Plasmodium falciparum, PfDGFA at 2µM, replicate R3, read-out: % inhibition female (individual replicates) R3
[24] = Plasmodium falciparum, PfDGFA at 2µM, replicate R4, read-out: % inhibition female (individual replicates) R4

| Compound | Selectivity Ratio M [1] | IC50 [1, 7] [nM] | Selectivity ratio F [2] | IC50 ([2]; Plasmodium falciparum) [nM] | Tox50 (HepG2 cells) [µM] | Average inhibition male (%) [1, 13] [%] | % inhibition male (individual replicates) R1 ([1]; PfDGFA at 2µM, replicate R1) [%] | % inhibition male (individual replicates) R3 ([1]; PfDGFA at 2µM, replicate R3) [%] | % inhibition male (individual replicates) R4 ([1]; PfDGFA at 2µM, replicate R4) [%] | IC50 [1, 14] [nM] | HitlevelM ([1]; 2µM) | Average inhibition female (%) [2, 13] [%] | % inhibition female (individual replicates) R1 ([2]; PfDGFA at 2µM, replicate R1) [%] | % inhibition female (individual replicates) R3 ([2]; PfDGFA at 2µM, replicate R3) [%] | % inhibition female (individual replicates) R4 ([2]; PfDGFA at 2µM, replicate R4) [%] | IC50 [2] [nM] | HitlevelF ([2]; 2µM) | also measured |
| --- | --- | --- | --- | --- | --- | --- | --- | --- | --- | --- | --- | --- | --- | --- | --- | --- | --- | --- |
| COc1ccc(Nc2ncc(OC)c(Nc3ccccc3C(N)=O)n2)cc1N1CCN(C)CC1.O=CO [TCMDC-134149] | 28.52 | 180 | 0.66 | 7910 | 5.24 | – | – | – | – | – | – | – | – | – | – | – | – | inhibition at 2 µM [1, 3]: 94.7%; inhibition at 2 µM [1, 4]: 95.1%; inhibition at 2 µM [1, 5]: 101%; inhibition at 2 µM ([1]; Plasmodium falciparum, 2µM, replicate R3, read-out: % inhibition male (individual replicates) R3): 85.5%; inhibition at 2 µM [1, 6]: 97.6%; inhibition at 2 µM [2, 8]: 13.9%; inhibition at 2 µM [2, 9]: 17.6%; inhibition at 2 µM [2, 10]: 16.3%; inhibition at 2 µM [2, 11]: 5.9%; inhibition at 2 µM [2, 12]: 15.7% |
| CCCCOc1c(CCNCCCCNCCc2cc(OC)c3ccccc3c2OCCCC)cc(OC)c2ccccc12.CS(=O)(=O)O [TCMDC-137848] | 2.01 | – | 2.45 | – | 3.16 | 82.6 | 89.8 | 50.4 | 92.9 | 1570 | 4 | 42.4 | 32.5 | 23.0 | 45.3 | 1290 | 1 | – |
| Cc1ccc(C)c(S(=O)(=O)NCC2CCN(Cc3ccc(O)cc3)CC2)c1.O=C(O)C(F)(F)F [TCMDC-141802] | 54.73 | 1490 | 8.16 | > 10000 | 81.55 | – | – | – | – | – | – | – | – | – | – | – | – | inhibition at 2 µM [1, 3]: 95.1%; inhibition at 2 µM [1, 4]: 95.4%; inhibition at 2 µM [1, 5]: 96.3%; inhibition at 2 µM [1, 6]: 93.6%; inhibition at 2 µM [2, 8]: 41.1%; inhibition at 2 µM [2, 9]: 46.9%; inhibition at 2 µM [2, 10]: 46.3%; inhibition at 2 µM [2, 11]: 38%; inhibition at 2 µM [2, 12]: 33.3% |
| Cc1cccc(Nc2nc(NCCCCN)nc3cc[nH]c(=O)c23)c1.O=C(O)C(F)(F)F [TC51] | – | – | – | – | – | – | – | – | – | – | – | – | – | – | – | – | – | Cytotox ratio Pf Male [1]: 75.4; IC50 ([1]; this study, read-out: Pf DGFA IC50 MALE): 380 nM; Cytotox ratio Pf Female [2]: 2.9; Mean TOX (HepG2 cells; mean of the HepG2 TOX50 values): 28.66 µM |
| C#CCCOc1ccc2ccccc2c1CNCCCCCCNCc1c(OCCC#C)ccc2ccccc12 [TCMDC-137832] | 2.13 | – | 1.37 | – | 3.94 | 78.9 | 82.1 | 58.7 | 86.2 | 1850 | 4 | 22.9 | 24.2 | 11.7 | 20.0 | 2880 | 0 | – |
| CNC(=O)c1ccccc1Nc1nc(Nc2ccc(N3CCOCC3)cc2)ncc1Cl.Cl [TCMDC-134144] | 4.53 | 180 | 0.08 | > 10000 | 0.82 | – | – | – | – | – | 4 | – | – | – | – | – | 0 | inhibition at 2 µM [1, 15]: 88.6%; inhibition at 2 µM [1, 16]: 93.6%; inhibition at 2 µM [1, 17]: 91.9%; inhibition at 2 µM [1, 18]: 82.6%; inhibition at 2 µM [1, 19]: 86.2%; inhibition at 2 µM [2, 20]: 8.6%; inhibition at 2 µM [2, 21]: 12.4%; inhibition at 2 µM [2, 22]: 10.5%; inhibition at 2 µM [2, 23]: 10.7%; inhibition at 2 µM [2, 24]: 0.76% |
| COc1c(C2CCN(CCCCNC(=O)c3ccc(-c4ccc(Cl)cc4)c(OCCN(C)C)c3)CC2)ccc2c1CCCC2 [TCMDC-134371] | 3.17 | – | 0.69 | – | 5.71 | – | – | – | – | 1800 | – | – | – | – | – | 8290 | – | Average inhibition male (%) ([1]; 2µM, average of replicates): 98.8%; % inhibition male (individual replicates) R1 ([1]; 2µM, replicate R1): 97.3%; % inhibition male (individual replicates) R3 ([1]; 2µM, replicate R3): 99.5%; % inhibition male (individual replicates) R4 ([1]; 2µM, replicate R4): 100.2%; Average inhibition female (%) ([2]; 2µM, average of replicates): 90.2%; % inhibition female (individual replicates) R1 ([2]; 2µM, replicate R1): 90.8%; % inhibition female (individual replicates) R3 ([2]; 2µM, replicate R3): 96.4%; % inhibition female (individual replicates) R4 ([2]; 2µM, replicate R4): 89.7% |
| CNC(=O)c1ccccc1Nc1nc(Nc2ccc(CCN3CCN(C)CC3)cc2)ncc1Cl.Cl [TCMDC-133800] | 5.19 | – | 0.03 | – | 0.33 | – | – | – | – | 60 | – | – | – | – | – | – | – | Average inhibition male (%) ([1]; 2µM, average of replicates): 96.7%; % inhibition male (individual replicates) R1 ([1]; 2µM, replicate R1): 94.6%; % inhibition male (individual replicates) R3 ([1]; 2µM, replicate R3): 98.6%; % inhibition male (individual replicates) R4 ([1]; 2µM, replicate R4): 96.9%; Average inhibition female (%) ([2]; 2µM, average of replicates): 7.2%; % inhibition female (individual replicates) R1 ([2]; 2µM, replicate R1): 6.8%; % inhibition female (individual replicates) R3 ([2]; 2µM, replicate R3): -10.4%; % inhibition female (individual replicates) R4 ([2]; 2µM, replicate R4): 12.4% |
| COc1ccc2nc3cc(Cl)ccc3c(NCCCCNc3c4ccc(Cl)cc4nc4ccc(OC)cc34)c2c1 [TCMDC-138218] | 6.15 | 380 | 6.16 | 380 | 2.31 | – | – | – | – | – | 4 | – | – | – | – | – | 4 | inhibition at 2 µM [1, 15]: 73.2%; inhibition at 2 µM [1, 16]: 64.4%; inhibition at 2 µM [1, 17]: 64.9%; inhibition at 2 µM [1, 18]: 77.2%; inhibition at 2 µM [1, 19]: 86.3%; inhibition at 2 µM [2, 20]: 88.1%; inhibition at 2 µM [2, 21]: 84.2%; inhibition at 2 µM [2, 22]: 86.6%; inhibition at 2 µM [2, 23]: 91.5%; inhibition at 2 µM [2, 24]: 89.9% |
| C[C@H](Cc1ccc(OCCCCCOc2ccc(C[C@@H](C)NC[C@H](O)c3cccc(Cl)c3)cc2)cc1)NC[C@H](O)c1cccc(Cl)c1.Cl [TCMDC-131563] | 2.4 | – | 1.3 | – | 3.24 | 65.6 | 66.8 | 65.3 | 85.7 | 1350 | 3 | 27.5 | 37.3 | 14.2 | 41.5 | 2490 | 0 | – |
| CCCCOc1ccc(C(=O)C(CCC(CNC(C)(C)C)C(=O)c2ccc(OCCCC)cc2)CNC(C)(C)C)cc1.Cl (centres unmarked) [TCMDC-124120] | 2.27 | – | 0.84 | – | 3.4 | 78.6 | 81.6 | 47.4 | 92.9 | 1500 | 3 | 46.8 | 36.1 | 20.3 | 72.1 | 4060 | 2 | – |
| Fc1ccc2[nH]c(-c3ccc(-c4ccc(CN5CCC(CCN6CCCCC6)CC5)cc4)s3)nc2c1.O=C(O)C(F)(F)F [TCMDC-133932] | 3.55 | – | 1.07 | – | 4.83 | 85.6 | 90.7 | 68.9 | 86.9 | 1360 | 4 | 38.7 | 37.3 | 32.0 | 25.9 | 4500 | 1 | – |
